# Measurements taken from ChEMBL document CHEMBL1158978, “Antimicrobial N-methylpyridinium salts related to the xestamines from the Caribbean sponge Calyx podatypa” (1991).
# Where a name gives a salt, the structure may show the parent alone.
# Columns and labels:
# Assay type in all cases: functional
# Conditions in all cases: read-out: IZ
# Bacillus subtilis = experiment: Antimicrobial activity against Bacillus subtilis at 5 ug/ml by standard disk assay
# Staphylococcus aureus = experiment: Antimicrobial activity against Staphylococcus aureus at 5 ug/ml by standard disk assay
# Candida albicans = experiment: Antimicrobial activity against Candida albicans at 10 ug/ml by standard disk assay
smiles,measurement,setting,value
CON(C)CCCCCCCCCC/C=C\C#CCCCCc1ccc[n+](C)c1 [XESTAMINE F IODIDE SALT],zone of inhibition at 5 µg/mL,Bacillus subtilis,8 mm
same,zone of inhibition at 5 µg/mL,Staphylococcus aureus,9 mm
same,zone of inhibition at 10 µg/mL,Candida albicans,10 mm
